Molecules are shown by their SMILES. Some results are limits rather than exact numbers.

Series [1] is described as follows: Hygroscopicity / weight change. It is filed as physicochemical.
The next series can be described thus: Thermal stability (neat). It is filed as physicochemical.
Another series concerns Mouse. The following applies: in vivo; cited from earlier work.

With `Nc1cccc2c1CN(C1CCC(=O)NC1=O)C2=O` (stereo not shown) [Lenalidomide-Resorcinol co-crystal], the weight change entry in series [1] is reported as “does not exhibit significant weight change”. Moreover, in series [1] (compared with Lenalidomide hemihydrate), the Hygroscopicity result is on record as “lesser or comparable”. The “thermally stable up to (temperature)” value in “Thermal stability (neat)” is ≥ 80 °C.
`O=C1NS(=O)(=O)c2ccccc21` [Saccharin]: the “Acute oral toxicity (LD50)” value in the series on Mouse is recorded as 17000 mg/kg.

The values are drawn from patent publication US12098136B2, “Crystalline forms of lenalidomide” (BIOCON LIMITED, priority 2017, dated 2024).
